Reference: patent US20250313960A1, “CHOLINE HYDROXIDE FOR SALT DI[…] RENEWABLE FEEDSTOCK PROCESS” (Ecolab USA Inc., priority 2024, published 2025)

Legend:
[1] = in water; all tested temperatures; compared with NH4Cl; FIG. 1, literature and experimental data
Description: The solubility experiment was conducted by adding different amounts of salt to a set amount of water in glass vials. The amount of water used was such that the salt was mostly insoluble at room temperature. The vials were then heated up until all salts were dissolved. Temperature was recorded as each vial cooled. The temperature at which crystallization began was noted.

[2] = all temperatures; compared with NH4Cl; FIG. 2, literature values or calculated from solubility data
Description: The effectiveness of the salt to dissolve in the aqueous phase was determined by its critical relative humidity (CRH) at various temperatures. CRH was defined by the ratio of the partial pressure of water in the solution (Pw) to the partial pressure of pure water (P*w) shown below.
The CRH of the salt at a specified temperature was calculated from thermodynamic parameters found in the equation:
Where CRH was the critical relative humidity, T was the temperature, ΔHs was the heat of solution at infinite dilution, R is the gas constant, and A, B, and C are solubility parameters obtained from solubility as a function of temperature of the salt.
Data not available in the literature was experimentally performed in triplicate by an enthalpy experiment and a solubility experiment.
The enthalpy experiment was conducted by recording changes in temperature as different amounts of the salt dissolved in a set volume of water located in a calorimeter. The enthalpy of solution was calculated for each of the different amount of salt used. The enthalpy data was then fitted and extrapolated to determine enthalpy of solution at an infinite dilution.
The CRH values at room temperature were found in literature or calculated from the solubility data following the below equations.

## C[N+](C)(C)CCO.[Cl-] [ChCl, choline chloride]
[1]
  solubility as a function of temperature (mol salt/mol water): more soluble than NH4Cl
[2]
  critical relative humidity (CRH): lower
